Key:
[1] = Solubility determination in water by HPLC assay; assay type: physicochemical; conditions: filtered, filtrate assayed by HPLC
Experimental: The average AUC of the three runs was used to determine the concentration.
Agilent 1100 HPLC; Eclipse XDB-C18 50×4.6 mm 1.8 micron column; Gradient—5 min 95% water (0.10% TFA) to 95% acetonitrile (0.07% TFA); 1.5 mL/min; UV Detection @ 210 nm.

[2] = Merck Index, 11th Edition, page 1556; cited from earlier work

In the case of `C[C@H]1[C@H](C)CC[C@]2(C(=O)O)CC[C@]3(C)C(=CC[C@@H]4[C@@]5(C)CC[C@H](O)C(C)(C)[C@@H]5CC[C@]43C)[C@H]12` [Ursolic acid], the “detection by HPLC assay in filtrate of water saturated with the substance” value [1] is listed as “not detected” and the “solubility in water (literature citation)” value [2] is listed as “insoluble in water”.
